We go through ten molecules from US20230406885A1, “CYCLIC PEPTIDES FOR TRAPPING INTERLEUKIN-1 BETA” (MERCK SHARP & DOHME LLC, priority 2022, published 2023).

*1 amine or outer side, *2 acyl side, *3 side chain or, on linkers, in order; H or OH if unused. Where a SMILES comes first, the peptide text is derived from it. [ ]: non-standard residue; d: D form. Phe(4-(4-Ac-piperazinyl)) = CC(=O)N1CCN(c2ccc(C[C@H](N)C(=O)O)cc2)CC1; Trp(4-Cl)(βS-Me) = C[C@@H](c1c[nH]c2cccc(Cl)c12)[C@H](N)C(=O)O; Trp(βS-Me,4-F) = C[C@@H](c1c[nH]c2cccc(F)c12)[C@H](N)C(=O)O; Bip(4'-COOH) = N[C@@H](Cc1ccc(-c2ccc(C(=O)O)cc2)cc1)C(=O)O; 1Nal(3S-Me) = C[C@@H](c1cccc2ccccc12)[C@H](N)C(=O)O; X11 = O=C([C@@H]1C[C@@H](NCc2ccccc2)CN1[*:1])[*:2]; X5 = O=C([C@@H]1C[C@@H](NCCc2ccccc2)CN1[*:1])[*:2]; Phe(3-allyloxy) = C=CCOc1cccc(C[C@H](N)C(=O)O)c1; Phe(4-COOH) = N[C@@H](Cc1ccc(C(=O)O)cc1)C(=O)O; X4 = CCN[C@@H]1C[C@@H](C(=O)[*:2])N([*:1])C1; Pro(4R-NH2) = N[C@H]1CN[C@H](C(=O)O)C1; hTyr = N[C@@H](CCc1ccc(O)cc1)C(=O)O; dDab = NCC[C@@H](N)C(=O)O; dNMeA = CN[C@H](C)C(=O)O; Nva = CCC[C@H](N)C(=O)O; Dap = NC[C@H](N)C(=O)O

This experiment deals with T1, Recombinant human IL-1β (Homo sapiens, UniProt P01584).
T1 construct: purchased BioLegend 579404
Put plainly: IL-6 assay in MRC5 cells: inhibition of IL-1β induced IL-6 secretion (AlphaLISA). The experiment is classed as cell-based. The settings on record: inhibition of IL-1β induced IL-6 secretion in MRC5 cells; IL-1β pre-incubated 1 hour with compound; read-out: MRC5 IC50. The method in brief: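 IL-1β at 2×EC80 in seeding medium (EMEM, 0.025% BSA) preincubated 1 h at ambient temperature with compound, then 3000 MRC5 cells/well added and incubated overnight at 37 °C, 5% CO2. IL-6 in conditioned medium quantified by AlphaLISA; IC50 from 4-parameter logistic fit.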

T1 sequence (P01584 117-269): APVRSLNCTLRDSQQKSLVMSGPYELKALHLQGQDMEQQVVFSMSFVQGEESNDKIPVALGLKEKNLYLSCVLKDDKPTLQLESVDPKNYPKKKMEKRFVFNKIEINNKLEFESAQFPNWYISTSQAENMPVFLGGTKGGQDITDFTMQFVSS

With `C=CCOc1cccc(C[C@@H]2NC(=O)[C@H](Cc3ccc(-c4ccc(C(=O)O)cc4)cc3)NC(=O)CNC(=O)[C@@H](C)N(C)C(=O)[C@H](CC(=O)O)NC(=O)[C@H]([C@@H](C)c3c[nH]c4cccc(F)c34)NC(=O)[C@@H]3C[C@@H](N)CN3C(=O)CNC(=O)[C@H](Cc3ccc(C(=O)O)cc3)NC(=O)[C@H](Cc3c[nH]c4ccccc34)NC(=O)[C@H](Cc3ccc(-c4ccc(C(=O)O)cc4)cc3)NC(=O)[C@H](CCc3ccc(O)cc3)NC(=O)[C@@H](C)NC(=O)[C@H](CC(C)C)NC2=O)c1` [Example 76] (cyclo([Bip(4'-COOH)]W[Phe(4-COOH)]G[Pro(4R-NH2)][Trp(βS-Me,4-F)]D[dNMeA]G[Bip(4'-COOH)][Phe(3-allyloxy)]L[dA][hTyr])), the IC50 was 122 pM. For the molecule `C[C@@H]1C(=O)NCC(=O)N[C@@H](Cc2ccc(-c3ccc(C(=O)O)cc3)cc2)C(=O)N[C@@H](Cc2c[nH]c3ccccc23)C(=O)NCC(=O)N[C@H](CCN)C(=O)N[C@@H](CCc2ccc(O)cc2)C(=O)N[C@@H](Cc2ccc(-c3ccc(C(=O)O)cc3)cc2)C(=O)N[C@@H](Cc2c[nH]c3ccccc23)C(=O)N[C@@H](Cc2ccc(C(=O)O)cc2)C(=O)NCC(=O)N2C[C@H](N)C[C@H]2C(=O)N[C@@H]([C@@H](C)c2c[nH]c3cccc(F)c23)C(=O)N[C@@H](CC(=O)O)C(=O)N1C` [Example 77] (cyclo([Bip(4'-COOH)]W[Phe(4-COOH)]G[Pro(4R-NH2)][Trp(βS-Me,4-F)]D[dNMeA]G[Bip(4'-COOH)]WG[dDab][hTyr])), the IC50 is 60.1 pM. `CC(C)C[C@@H]1NC(=O)[C@H](Cc2c[nH]c3ccccc23)NC(=O)[C@H](Cc2ccc(-c3ccc(C(=O)O)cc3)cc2)NC(=O)CNC(=O)[C@@H](C)N(C)C(=O)[C@H](CC(=O)O)NC(=O)[C@H]([C@@H](C)c2c[nH]c3cccc(F)c23)NC(=O)[C@@H]2C[C@@H](N)CN2C(=O)CNC(=O)[C@H](Cc2ccc(C(=O)O)cc2)NC(=O)[C@H](Cc2c[nH]c3ccccc23)NC(=O)[C@H](Cc2ccc(-c3ccc(C(=O)O)cc3)cc2)NC(=O)[C@H](CCc2ccc(O)cc2)NC(=O)[C@@H](C)NC1=O` [Example 78] (cyclo([Bip(4'-COOH)]W[Phe(4-COOH)]G[Pro(4R-NH2)][Trp(βS-Me,4-F)]D[dNMeA]G[Bip(4'-COOH)]WL[dA][hTyr])): the concentration for half-maximal inhibition (IC50) is 73.2 pM.

`CCC[C@@H]1NC(=O)[C@H](Cc2c[nH]c3ccccc23)NC(=O)[C@H](Cc2ccc(-c3ccc(C(=O)O)cc3)cc2)NC(=O)CNC(=O)[C@@H](C)N(C)C(=O)[C@H](CC(=O)O)NC(=O)[C@H]([C@@H](C)c2c[nH]c3cccc(F)c23)NC(=O)[C@@H]2C[C@@H](N)CN2C(=O)CNC(=O)[C@H](Cc2ccc(C(=O)O)cc2)NC(=O)[C@H](Cc2c[nH]c3ccccc23)NC(=O)[C@H](Cc2ccc(-c3ccc(C(=O)O)cc3)cc2)NC(=O)[C@H](C)NC(=O)[C@@H](C)NC1=O` [Example 79] (cyclo([Bip(4'-COOH)]W[Phe(4-COOH)]G[Pro(4R-NH2)][Trp(βS-Me,4-F)]D[dNMeA]G[Bip(4'-COOH)]W[Nva][dA]A)): the IC50 worked out at 189 pM.

Take `CC(C)C[C@@H]1NC(=O)[C@H](CCCCN)NC(=O)[C@H](Cc2ccc(-c3ccc(C(=O)O)cc3)cc2)NC(=O)CNC(=O)[C@@H](C)N(C)C(=O)[C@H](CC(N)=O)NC(=O)[C@H]([C@@H](C)c2c[nH]c3cccc(F)c23)NC(=O)[C@@H]2C[C@@H](N)CN2C(=O)CNC(=O)[C@H](Cc2ccc(C(=O)O)cc2)NC(=O)[C@H](Cc2c[nH]c3ccccc23)NC(=O)[C@H](Cc2ccc(-c3ccc(C(=O)O)cc3)cc2)NC(=O)[C@H](CCc2ccc(O)cc2)NC(=O)[C@@H](C)NC1=O` [Example 80] (cyclo([Bip(4'-COOH)]W[Phe(4-COOH)]G[Pro(4R-NH2)][Trp(βS-Me,4-F)]N[dNMeA]G[Bip(4'-COOH)]KL[dA][hTyr])): the IC50 is 291 pM. For `CC(C)C[C@@H]1NC(=O)[C@H](CCCCN)NC(=O)[C@H](Cc2ccc(-c3ccc(C(=O)O)cc3)cc2)NC(=O)CNC(=O)[C@@H](C)N(C)C(=O)[C@H](CC(N)=O)NC(=O)[C@H]([C@@H](C)c2c[nH]c3cccc(F)c23)NC(=O)[C@@H]2C[C@@H](N)CN2C(=O)CNC(=O)[C@H](Cc2ccc(C(=O)O)cc2)NC(=O)[C@H](Cc2c[nH]c3ccccc23)NC(=O)[C@H](Cc2ccc(-c3ccc(C(=O)O)cc3)cc2)NC(=O)[C@H](CCc2ccc(O)cc2)NC(=O)[C@@H](CCN)NC1=O` [Example 81] (cyclo([Bip(4'-COOH)]W[Phe(4-COOH)]G[Pro(4R-NH2)][Trp(βS-Me,4-F)]N[dNMeA]G[Bip(4'-COOH)]KL[dDab][hTyr])), the IC50 is 255 pM. For `C[C@@H]1C(=O)NCC(=O)N[C@@H](Cc2ccc(-c3ccc(C(=O)O)cc3)cc2)C(=O)N[C@@H](Cc2c[nH]c3ccccc23)C(=O)N[C@@H](CN)C(=O)N[C@H](C)C(=O)N[C@@H](CCc2ccc(O)cc2)C(=O)N[C@@H](Cc2ccc(-c3ccc(C(=O)O)cc3)cc2)C(=O)N[C@@H](Cc2c[nH]c3ccccc23)C(=O)N[C@@H](Cc2ccc(C(=O)O)cc2)C(=O)NCC(=O)N2C[C@H](NCc3ccccc3)C[C@H]2C(=O)N[C@@H]([C@@H](C)c2cccc3ccccc23)C(=O)N[C@@H](CC(=O)O)C(=O)N1C` [Example 82] (cyclo([Bip(4'-COOH)]W[Phe(4-COOH)]G[X11][1Nal(3S-Me)]D[dNMeA]G[Bip(4'-COOH)]W[Dap][dA][hTyr])), the IC50 is 15.7 pM. Regarding `C[C@@H]1C(=O)NCC(=O)N[C@@H](Cc2ccc(-c3ccc(C(=O)O)cc3)cc2)C(=O)N[C@@H](Cc2c[nH]c3ccccc23)C(=O)N[C@@H](CN)C(=O)N[C@H](C)C(=O)N[C@@H](CCc2ccc(O)cc2)C(=O)N[C@@H](Cc2ccc(-c3ccc(C(=O)O)cc3)cc2)C(=O)N[C@@H](Cc2c[nH]c3ccccc23)C(=O)N[C@@H](Cc2ccc(C(=O)O)cc2)C(=O)NCC(=O)N2C[C@H](NCCc3ccccc3)C[C@H]2C(=O)N[C@@H]([C@@H](C)c2cccc3ccccc23)C(=O)N[C@@H](CC(=O)O)C(=O)N1C` [Example 83] (cyclo([Bip(4'-COOH)]W[Phe(4-COOH)]G[X5][1Nal(3S-Me)]D[dNMeA]G[Bip(4'-COOH)]W[Dap][dA][hTyr])), the IC50 was determined as 32.9 pM. Consider `CCN[C@@H]1C[C@H]2C(=O)N[C@@H]([C@@H](C)c3cccc4ccccc34)C(=O)N[C@@H](CC(=O)O)C(=O)N(C)[C@H](C)C(=O)NCC(=O)N[C@@H](Cc3ccc(-c4ccc(C(=O)O)cc4)cc3)C(=O)N[C@@H](Cc3c[nH]c4ccccc34)C(=O)N[C@@H](CN)C(=O)N[C@H](C)C(=O)N[C@@H](CCc3ccc(O)cc3)C(=O)N[C@@H](Cc3ccc(-c4ccc(C(=O)O)cc4)cc3)C(=O)N[C@@H](Cc3c[nH]c4ccccc34)C(=O)N[C@@H](Cc3ccc(C(=O)O)cc3)C(=O)NCC(=O)N2C1` [Example 84] (cyclo([Bip(4'-COOH)]W[Phe(4-COOH)]G[X4][1Nal(3S-Me)]D[dNMeA]G[Bip(4'-COOH)]W[Dap][dA][hTyr])), for which the IC50 amounted to 25.8 pM.

As to `CC(=O)N1CCN(c2ccc(C[C@@H]3NC(=O)[C@H](CCc4ccc(O)cc4)NC(=O)[C@@H](CCN)NC(=O)CNC(=O)[C@H](Cc4c[nH]c5ccccc45)NC(=O)[C@H](Cc4ccc(-c5ccc(C(=O)O)cc5)cc4)NC(=O)CNC(=O)[C@@H](C)N(C)C(=O)[C@H](CC(=O)O)NC(=O)[C@H]([C@@H](C)c4c[nH]c5cccc(Cl)c45)NC(=O)[C@@H]4C[C@@H](N)CN4C(=O)CNC(=O)[C@H](Cc4ccc(C(=O)O)cc4)NC(=O)[C@H](Cc4c[nH]c5ccccc45)NC3=O)cc2)CC1` [Example 85] (cyclo([Phe(4-(4-Ac-piperazinyl))]W[Phe(4-COOH)]G[Pro(4R-NH2)][Trp(4-Cl)(βS-Me)]D[dNMeA]G[Bip(4'-COOH)]WG[dDab][hTyr])), the IC50 was 54.3 pM.
